# Where two headings read alike, the source gives them in different places.
# Columns and labels:
# [1] = 37 C., cited from earlier work
# [2] = Amount of xenon gas dissolved in water, blood and oil with increasing pressure, computed by Henry's Law; type: physicochemical
# From the text: Dissolution of xenon gas in liquid, such as saline or other medical fluid, including an iodine X-ray contrast solution, provides a diagnostic contrast composition with a variety of available concentrations of xenon (mg) per mL of liquid based on a number of parameters, including pressure or presence of one or more concentration-augmenting compositions. For example, the concentration of the gas-evolving fluid in the carrier fluid may be dependent on pressure and temperature. In certain circumstances, it may be desirable to augment the concentration of the gas-evolving fluid beyond the carrying capacity of the carrier fluid at, for example, standard temperature and pressure. For example, according to Henry's Law, the amount of a gas dissolved in a liquid is proportional to the partial pressure of the gas in the volume of the liquid at a given temperature. Table 2 below uses the coefficients from Table 1 above to compute the amount of xenon gas that is dissolved in water, blood, and oil based on increasing pressure (from 1 atm to 30 atm).
# [3] = rats; cited from earlier work
# [4] = humans, compared with rats; cited from earlier work
"Amount of Gas Dissolved in the Liquid ([2]; blood, 1 atm) [mgmXe/ml]","Amount of Gas Dissolved in the Liquid ([2]; blood, 2 atm) [mgmXe/ml]","Amount of Gas Dissolved in the Liquid ([2]; blood, 4 atm) [mgmXe/ml]","Amount of Gas Dissolved in the Liquid ([2]; blood, 5 atm) [mgmXe/ml]","Amount of Gas Dissolved in the Liquid ([2]; blood, 30 atm) [mgmXe/ml]","Amount of Gas Dissolved in the Liquid ([2]; oil, 1 atm) [mgmXe/ml]","Amount of Gas Dissolved in the Liquid ([2]; oil, 2 atm) [mgmXe/ml]","Amount of Gas Dissolved in the Liquid ([2]; oil, 4 atm) [mgmXe/ml]","Amount of Gas Dissolved in the Liquid ([2]; oil, 5 atm) [mgmXe/ml]","Amount of Gas Dissolved in the Liquid ([2]; oil, 30 atm) [mgmXe/ml]","Amount of Gas Dissolved in the Liquid ([2]; saline, 1 atm) [mgmXe/ml]","Amount of Gas Dissolved in the Liquid ([2]; saline, 2 atm) [mgmXe/ml]","Amount of Gas Dissolved in the Liquid ([2]; saline, 4 atm) [mgmXe/ml]","Amount of Gas Dissolved in the Liquid ([2]; saline, 5 atm) [mgmXe/ml]","Amount of Gas Dissolved in the Liquid ([2]; saline, 30 atm) [mgmXe/ml]",Compound,bunsen constant ([1]; olive oil),bunsen constant ([1]; seawater (*1.3 of pure water)),bunsen constant ([1]; water),retention half-life [3],retention half-life [4]
0.7603,1.521,3.041,3.801,22.81,9.942,19.88,39.77,49.71,298.2589,0.4971,0.9942,1.988,2.485,14.91,[Xe] [xenon],1.7,0.1105,0.085,,
,,,,,,,,,,,,,,,FC(F)(F)C(F)(F)C(F)(F)C(F)(F)C(F)(F)C(F)(F)C(F)(F)C(F)(F)Br [Perfluorooctylbromide],,,,about 6 hours,shorter retention half-life in humans

# — patent publication US11576985B2, “Contrast imaging agent with dissolved gas-evolving fluid” (BAYER HEALTHCARE LLC, priority 2015, dated 2023)
